Results from patent publication US20260041744A1, “Methods for Treating Pompe Disease” (Amicus Therapeutics, Inc., priority 2022, published 2026).

Experiments:
[1] = parameters: species or system human; settings: in vivo
Excerpt: Concomitant medications and nondrug therapies were also be recorded. […] Safety Analyses. Safety data was summarized using counts and percentages for categorical data and descriptive statistics (mean, standard deviation, median, minimum, maximum) for continuous data.

[2] = tested on: subjects with late-onset Pompe disease (LOPD); settings: systematic review, 368 LOPD subjects (Toscano and Schoser); cited from earlier work
[3] = tested on: adult subjects with late-onset Pompe disease (LOPD); test: Study ATB200-03 (PROPEL): sitting % predicted FVC; type: in vivo, human; settings: for absolute decline in percent-predicted FVC: 52 weeks; for CHG to Week 52 in sitting % predicted FVC, LS Mean: MMRM, actual time point of assessments; for Sitting % predicted FVC CHG, LS means (SE): Week 52, ANCOVA
Method: The test for the primary endpoint was conducted first at the 1-sided 0.025 significance level, and if significant, the ordered key secondary endpoints were similarly tested at the same significance level. The statistical significance of the key secondary endpoints was interpreted following a hierarchical testing order, each at the 1-sided alpha level of 0.025. […] Primary analyses of efficacy were performed using the mixed-effect model for repeated measures (MMRM) for 6MWD in Intent-to-treat Observed Population (ITT) that includes all available, observed data without any missing data imputation (ITT-OBS) and analysis of covariance (ANCOVA) for all other endpoints in the Intent-to-Treat-Last Observation Carried Forward (ITT-LOCF) Population. A nonparametric randomization based ANCOVA was specified as the first sensitivity analysis for 6MWD and FVC. […] For the purposes of data presentation in this document, 2-sided p-values are reported hereafter, except as otherwise noted.

Gaa KO mice = test: Single fiber analysis (LAMP1/LC3 co-immunofluorescence, white gastrocnemius); type: in vivo, mouse; settings: single fibers
Excerpt: FIG. 17 depicts co-immunofluorescent staining of LAMP1 (green) (see for example, “B”) and LC3 (red) (see, for example, “A”) in single fibers isolated from the white gastrocnemius of Gaa KO mice treated with a vehicle, alglucosidase alfa, or ATB200. “C” depicts clearance of autophagic debris and absence of enlarged lysosome. A minimum of 30 fibers were examined from each animal.
As a result, a significant portion of muscle fibers analyzed (36-60%) from ATB200-treated mice appeared normal or near-normal.

[4] = tested on: adult subjects with late-onset Pompe disease (LOPD); test: Study ATB200-03 (PROPEL): GSGC total score; type: in vivo, human; settings: for CHG to Week 52 in GSGC total score, LS Mean: MMRM, actual time point of assessments, decrease indicates improvement; for GSGC total score CHG, LS means (SE): Week 52, ANCOVA
Method: The test for the primary endpoint was conducted first at the 1-sided 0.025 significance level, and if significant, the ordered key secondary endpoints were similarly tested at the same significance level. […] A nonparametric randomization based ANCOVA was specified as the first sensitivity analysis for 6MWD and FVC. […] For the purposes of data presentation in this document, 2-sided p-values are reported hereafter, except as otherwise noted.

[5] = Baseline, ITT, ERT-naïve Population excluding Subject 4005-2511
[6] = ERT-naïve excluding Subject 4005-2511
[7] = ITT-OBS excluding Subject 4005-2511 (overall)
[8] = ITT-OBS excluding Subject 4005-2511, ERT-naïve Subjects
[9] = ITT-OBS, ERT-experienced Subjects
[10] = Week 52-LOCF, ERT-experienced Population
[11] = Week 52-LOCF, ERT-naïve Population excluding Subject 4005-2511
[12] = Week 52-LOCF, ITT excluding Subject 4005-2511
[13] = ITT-LOCF excluding Subject 4005-2511
[14] = ITT-LOCF, ERT-experienced Population
[15] = Week 52-LOCF, ERT-naïve Subjects excluding Subject 4005-2511

alglucosidase alfa [reference compound]
participants with infusion (injection) associated reactions (IARs) [1]: 26% | patients who discontinued treatment due to an adverse event [1]: 2.6% | subjects without initial improvement during treatment [2]: > 30% | Sitting % Predicted FVC Absolute Value, Mean [3, 5]: 79.07 % predicted | Sitting % predicted FVC Absolute Value, Median [3, 5]: 93.50 % predicted | FVC (% predicted) CFBL at Week 52 ([3]; ERT switch (ERT-experienced) population): −4.0 (0.9) % predicted | FVC (% predicted) CFBL at Week 52 ([3]; ERT treatment naive population): −3.6 % predicted | FVC (% predicted) CFBL at Week 52 ([3]; ERT treatment naive population, listed as Alglucosidase alfa): −3.6 (1.8) % predicted | absolute decline in percent-predicted FVC ([3]; ERT-experienced): 4.0% | mean change in sitting % predicted FVC from baseline to Week 52 [3, 6]: −3.6% | Change in sitting % predicted FVC baseline to Week 52, LS means (SE) from ANCOVA ([3]; ITT-LOCF, ERT-naïve Population excluding Subject 4005-2511): −2.54 (2.758) % predicted | CHG to Week 52 in sitting % predicted FVC, LS Mean [3, 7]: −3.7 | CHG to Week 52 in sitting % predicted FVC, LS Mean [3, 8]: −2.4 | CHG to Week 52 in sitting % predicted FVC, LS Mean [3, 9]: −3.8 | Sitting % predicted FVC Absolute Value, Mean (SD) [3, 10]: 63.47 (20.480) % predicted | Sitting % predicted FVC Absolute Value, Median [3, 10]: 62.00 % predicted | Sitting % predicted FVC CHG, Mean (SD) [3, 10]: −4.02 (5.009) % predicted | Sitting % predicted FVC CHG, Median [3, 10]: −3.25 % predicted | Sitting % Predicted FVC Absolute Value, Mean [3, 11]: 75.43 % predicted | Sitting % Predicted FVC CHG (change from baseline), Mean [3, 11]: −3.64 % predicted | Sitting % Predicted FVC CHG (change from baseline), Median [3, 11]: −3.00 % predicted | Sitting % predicted FVC Absolute Value, Median [3, 11]: 85.00 % predicted | Sitting % predicted FVC Absolute Value, Mean (SD) [3, 12]: 65.73 (21.109) % predicted | Sitting % predicted FVC Absolute Value, Median [3, 12]: 69.00 % predicted | Sitting % predicted FVC CHG, Mean (SD) [3, 12]: −3.95 (4.892) % predicted | Sitting % predicted FVC CHG, Median [3, 12]: −3.00 % predicted | Sitting % predicted FVC CHG, LS means (SE) [3, 13]: −3.70 (0.953) % predicted | Sitting % predicted FVC CHG, LS means (SE) [3, 14]: −3.64 (1.019) % predicted | FVC (% predicted) CFBL at Week 52 ([3]; overall ERT switch + ERT naïve population): −4.0 (0.8) % predicted | absolute decline in percent-predicted FVC ([3]; overall population): 4.0% | Fibers with Autophagy Buildup (Gaa KO mice): >90% | Fibers with Normal or Near-normal Appearance (Gaa KO mice): <10% | GSGC Total Score Absolute Value, Median ([4]; Baseline, ITT, ERT-naïve Subjects excluding Subject 4005-2511): 9.00 | GSGC Total Score Absolute Value, Mean ([4]; Baseline, ITT, ERT-naïve Subjects excluding Subject 4005-2511, 4 points (normal) to 27 points (worst)): 10.86 | mean (SD) change in GSGC total score from baseline to Week 52 ([4]; ERT-experienced Population): 0.6 (1.83) | mean (SD) change in GSGC total score from baseline to Week 52 [4, 6]: 1.3 (1.80) | Change in GSGC total score baseline to Week 52, LS means (SE) from ANCOVA ([4]; ITT-LOCF, ERT-naïve Subjects excluding Subject 4005-2511): 0.91 (1.042) | CHG to Week 52 in GSGC total score, LS Mean [4, 7]: 0.8 | CHG to Week 52 in GSGC total score, LS Mean [4, 8]: 1.3 | CHG to Week 52 in GSGC total score, LS Mean [4, 9]: 0.5 | GSGC Total Score Absolute Value, Mean [4, 10]: 15.87 | GSGC Total Score Absolute Value, Median [4, 10]: 17.00 | GSGC Total Score CHG, Mean [4, 10]: 0.61 | GSGC total score CHG, Median [4, 10]: 0.00 | GSGC Total Score Absolute Value, Mean [4, 15]: 12.14 | GSGC Total Score Absolute Value, Median [4, 15]: 10.00 | GSGC Total Score CHG (change from baseline), Mean [4, 15]: 1.29 | GSGC Total Score CHG (change from baseline), Median [4, 15]: 1.00 | GSGC Total Score Absolute Value, Median [4, 12]: 16.00 | GSGC total score Absolute Value, Mean (SD) [4, 12]: 15.00 (4.488) | GSGC total score CHG, Mean (SD) [4, 12]: 0.77 (1.813) | GSGC total score CHG, Median [4, 12]: 0.50 | GSGC total score CHG, LS means (SE) [4, 13]: 0.847 (0.440) | GSGC total score CHG, LS means (SE) [4, 14]: 0.65 (0.494) | GSGC outcome ([4]; overall (and ERT-experienced) population, week 52): worsening | mean (SD) change in GSGC total score from baseline to Week 52 ([4]; overall population, negative = improvement, listed as alglucosidase alfa and placebo): 0.77 (1.8) | mean (SD) change in GSGC total score from baseline to Week 52 ([4]; overall population, negative = improvement, listed as alglucosidase alfa/placebo): 0.77 (1.81)
